Where two headings read alike, the source gives them in different places.

Consider 9 molecules from patent US20100190706A1, “Stable Non-Aqueous Pharmaceutical Compositions” (NOVO NORDISK A/S, priority 2007, published 2010).

The conditions of data set [1]: cited from earlier work.
A short description of data set [2]: Isoelectric point (pI) of the insulinotropic peptide. The class given is physicochemical.
Description: The pI of a protein can be determined experimentally by electrophoresis techniques such as electrofocusing:
A pH gradient is established in an anticonvective medium, such as a polyacrylamide gel. When a protein is introduced in to the system it will migrate under influence of an electric field applied across the gel. Positive charged proteins will migrate to the cathode. Eventually, the migrating protein reaches a point in the pH gradient where its net electrical charge is zero and is said to be focused. This is the isoelectric pH (pI) of the protein. The protein is then fixed on the gel and stained. The pI of the protein can then be determined by comparison of the position of the protein on the gel relative to marker molecules with known pI values.
The conditions of data set [3]: protic, very hydrophilic and polar solvents; lyophilized from aqueous solution of pH 6.0; cited from earlier work.

Consider `CC(O)CO` (stereo not drawn) [1,2-propanediol [propylene glycol], 1,2-propanediol], for which, in data set [1] (303.2 Kelvin), the “Dielectricity constant, ε*” value is 27.5. As for `CC(O)CCO` (stereo not drawn) [1,3-butanediol], in data set [1] (293.2 Kelvin), the “Dielectricity constant, ε*” value is recorded as 28.8. For the molecule `OCCCO` [1,3-propanediol], the “Dielectricity constant, ε*” value in data set [1] (293.2 Kelvin) is 35.1. Turning to `CCO` [Ethanol], the “Dielectricity constant, ε*” value in data set [1] (293.2 Kelvin) was 25.3.

`CC(C)O` [Isopropanol]: the “Dielectricity constant, ε*” value in data set [1] (293.2 Kelvin) is reported as 20.18. Take `CO` [Methanol]: the “Dielectricity constant, ε*” value in data set [1] (293.2 Kelvin) is given as 33.0. As for `O` [Water], the “Dielectricity constant, ε*” value in data set [1] (293.2 Kelvin) was 80.1. In data set [2], “Arg34, Lys26(N∈-(γ-Glu(Na-hexadecanoyl)))-GLP-1(7-37)” came in with a pI of 5.6. On to “lysozyme: lysozyme lyophilized from aqueous solution of pH 6.0 (Klibanov et al)”, for which, in data set [3], the solubility result is on record as “more than 10 mg/ml”.
